Measured values reported in patent US10981894B2, “Melanocortin subtype-2 receptor (MC2R) antagonists and uses thereof” (Crinetics Pharmaceuticals, Inc., priority 2018, dated 2021).

Target: hMC2 receptor (Homo sapiens, UniProt Q01718)
Test: hMC2 membrane binding assay ([125I]ACTH (1-39) Tyr23, SPA)
Set-up: scale not given here
Settings: crude hMC2R membranes from CRE-bla-CHO-K1 cells expressing hMC2 receptor and hMRAP; [125I]ACTH (1-39) Tyr23 0.2 nM; 1.5 hours at room temperature; read-out: MC2R binding potency
In short: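 CRE-bla-CHO-K1 membranes co-expressing hMC2 receptor and hMRAP, preincubated with WGA PVT SPA beads in pH 7.4 HEPES/MgCl2/CaCl2/0.2% BSA buffer. Compounds (typically 0–10,000 nM final) compete with 0.2 nM [125I]ACTH(1-39) Tyr23 for 1.5 h at room temperature. SPA counts give Ki by non-linear regression.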

Sequence of hMC2 receptor (Q01718 whole entry): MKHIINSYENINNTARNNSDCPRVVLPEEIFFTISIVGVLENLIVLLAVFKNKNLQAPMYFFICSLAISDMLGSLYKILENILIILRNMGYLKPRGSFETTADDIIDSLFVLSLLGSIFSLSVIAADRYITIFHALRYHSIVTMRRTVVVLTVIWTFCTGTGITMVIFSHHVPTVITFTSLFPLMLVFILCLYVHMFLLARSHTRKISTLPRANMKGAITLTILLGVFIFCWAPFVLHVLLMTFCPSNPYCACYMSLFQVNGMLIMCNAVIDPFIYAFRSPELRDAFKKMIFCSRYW
Sequence of hMC2 receptor (Q8TCY5 whole entry partner): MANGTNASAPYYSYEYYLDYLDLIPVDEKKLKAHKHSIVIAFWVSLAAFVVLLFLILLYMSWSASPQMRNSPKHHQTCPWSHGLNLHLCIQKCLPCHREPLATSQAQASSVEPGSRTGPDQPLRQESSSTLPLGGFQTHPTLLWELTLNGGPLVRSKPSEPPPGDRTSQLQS

Ki [µM] | Compound
< 0.01 | CCOc1ncccc1-c1ccc(N2CCN(C(=O)c3ccc(Cl)cc3C(F)(F)F)C[C@H]2CC)c(C(=O)NC2CN(C)C2)c1 [Compound 1-216, 2-[(2R)-4-[4-chloro-2-(trifluoromethyl)benzoyl]-2-ethylpiperazin-1-yl]-5-(2-ethoxypyridin-3-yl)-N-(1-methylazetidin-3-yl)benzamide]
< 0.01 | CCOc1ncccc1-c1ccc(N2CCN(C(=O)c3ccc(Cl)cc3C(F)(F)F)C[C@H]2CC)c(C(=O)NCC2CN(C)C2)n1 [Compound 1-223, 5-[(2R)-4-[4-chloro-2-(trifluoromethyl)benzoyl]-2-ethylpiperazin-1-yl]-2′-ethoxy-N-[(1-methylazetidin-3-yl)methyl]-[2,3′-bipyridine]-6-carboxamide]
< 0.01 | CCOc1ncccc1-c1ccc(N2CCN(C(=O)N3CCC[C@H]3C(F)(F)F)C[C@H]2CC)c(C(=O)NC[C@@H]2CCN2C)n1 [Compound 1-391, 2′-ethoxy-5-[(2R)-2-ethyl-4-[(2S)-2-(trifluoromethyl)pyrrolidine-1-carbonyl]piperazin-1-yl]-N-{[(2S)-1-methylazetidin-2-yl]methyl}-[2,3′-bipyridine]-6-carboxamide]
< 0.01 | CCOc1ccccc1-c1ccc(N2CCN(C(=O)N3CCc4cc(F)cc(C#N)c43)C[C@H]2CC)c(C(=O)NC2CN(C)C2)n1 [Compound 1-424, 3-[(2R)-4-(7-cyano-5-fluoro-2,3-dihydro-1H-indole-1-carbonyl)-2-ethylpiperazin-1-yl]-6-(2-ethoxyphenyl)-N-(1-methylazetidin-3-yl)pyridine-2-carboxamide]
< 0.01 | CCOc1ccccc1-c1ccc(N2CCN(C(=O)N3CCC[C@@H]3C(C)(C)C)C[C@H]2CC)c(C(=O)N[C@@H]2CCNC2)n1 [Compound 1-356, 3-[(2R)-4-[(2R)-2-tert-butylpyrrolidine-1-carbonyl]-2-ethylpiperazin-1-yl]-6-(2-ethoxyphenyl)-N-[(3R)-pyrrolidin-3-yl]pyridine-2-carboxamide]
< 0.01 | CCOc1ncccc1-c1ccc(N2CCN(C(=O)C3C4CC5CC(C4)CC3C5)C[C@H]2CC)c(C(=O)NC2CN(C)C2)n1 (stereo partly drawn) [Compound 1-238, 5-[(2R)-4-(adamantane-2-carbonyl)-2-ethylpiperazin-1-yl]-2′-ethoxy-N-(1-methylazetidin-3-yl)-[2,3′-bipyridine]-6-carboxamide]
< 0.01 | CCOc1ccccc1-c1ccc(N2CCN(C(=O)N3CCc4cccc(C#N)c43)C[C@H]2CC)c(C(=O)N[C@@H]2CCN(C)C2)n1 [Compound 1-393, 3-[(2R)-4-(7-cyano-2,3-dihydro-1H-indole-1-carbonyl)-2-ethylpiperazin-1-yl]-6-(2-ethoxyphenyl)-N-[(3R)-1-methylpyrrolidin-3-yl]pyridine-2-carboxamide]
< 0.01 | CCOc1ncccc1-c1ccc(N2CCN(C(=O)c3ccc(F)cc3Cl)C[C@H]2CC)c(C(=O)N[C@@H]2CCNC2)c1 [Compound 1-82, 2-[(2R)-4-(2-chloro-4-fluorobenzoyl)-2-ethylpiperazin-1-yl]-5-(2-ethoxypyridin-3-yl)-N-[(3R)-pyrrolidin-3-yl]benzamide]
< 0.01 | CCOc1ccccc1-c1ccc(N2CCN(C(=O)C3(C(F)(F)F)CCC3)C[C@H]2CC)c(C(=O)N[C@@H]2CN3CCC2CC3)n1 [Compound 1-410, N-[(3S)-1-azabicyclo[2.2.2]octan-3-yl]-6-(2-ethoxyphenyl)-3-[(2R)-2-ethyl-4-[1-(trifluoromethyl)cyclobutanecarbonyl]piperazin-1-yl]pyridine-2-carboxamide]
< 0.01 | CCOc1ccccc1-c1ccc(N2CCN(C(=O)n3ccc4cc(F)cc(Cl)c43)C[C@H]2CC)c(C(=O)N[C@@H]2CCN(C)C2)n1 [Compound 1-430, 3-[(2R)-4-(7-chloro-5-fluoro-1H-indole-1-carbonyl)-2-ethylpiperazin-1-yl]-6-(2-ethoxyphenyl)-N-[(3R)-1-methylpyrrolidin-3-yl]pyridine-2-carboxamide]
< 0.01 | CCOc1ncccc1-c1ccc(N2CCN(C(=O)N3CCc4cccc(C)c43)C[C@H]2CC)c(C(=O)N[C@@H]2CCNC2)n1 [Compound 1-360, 2′-ethoxy-5-[(2R)-2-ethyl-4-(7-methyl-2,3-dihydro-1H-indole-1-carbonyl)piperazin-1-yl]-N-[(3R)-pyrrolidin-3-yl]-[2,3′-bipyridine]-6-carboxamide]

The next lines start with the molecule.

Compound | Ki [µM]
CCOc1ncccc1-c1ccc(N2CCN(C(=O)C3(C(F)(F)F)CCC3)C[C@H]2CC)c(C(=O)N[C@@H]2CN3CCC2CC3)n1 [Compound 1-411, N-[(3S)-1-azabicyclo[2.2.2]octan-3-yl]-2′-ethoxy-5-[(2R)-2-ethyl-4-[1-(trifluoromethyl)cyclobutanecarbonyl]piperazin-1-yl]-[2,3′-bipyridine]-6-carboxamide] | < 0.01
CCOc1ccc(C(=O)N2CCN(c3ccc(-c4cccnc4OCC)nc3CN)[C@H](CC)C2)c(C(F)(F)F)n1 [Compound 2-30] | < 0.01
CCOc1ncccc1-c1ccc(N2CCN(C(=O)c3ccc(F)cc3C(F)F)C[C@H]2CC)c(C(=O)NCCNC)c1F [Compound 1-177, 6-[(2R)-4-[2-(difluoromethyl)-4-fluorobenzoyl]-2-ethylpiperazin-1-yl]-3-(2-ethoxypyridin-3-yl)-2-fluoro-N-[2-(methylamino)ethyl]benzamide] | < 0.01
CCOc1ncccc1-c1ccc(N2CCN(C(=O)c3ccc(Cl)cc3C(F)(F)F)C[C@H]2CC)c(CNC)n1 [Compound 2-16, ({5-[(2R)-4-[4-chloro-2-(trifluoromethyl)benzoyl]-2-ethylpiperazin-1-yl]-2′-ethoxy-[2,3′-bipyridin]-6-yl}methyl)(methyl)amine] | < 0.01
CCOc1ncccc1-c1ccc(N2CCN(C(=O)c3ccc(OC)nc3C(F)(F)F)C[C@H]2CC)c(C(=O)NCCNC)n1 [Compound 1-187, 2′-ethoxy-5-[(2R)-2-ethyl-4-[6-methoxy-2-(trifluoromethyl)pyridine-3-carbonyl]piperazin-1-yl]-N-[2-(methylamino)ethyl]-[2,3′-bipyridine]-6-carboxamide] | < 0.01
CCOc1ncccc1-c1ccc(N2CCN(C(=O)C34CCC(C(F)(F)F)(CC3)CC4)C[C@H]2CC)c(C(=O)N[C@@H]2CCNC2)n1 [Compound 1-274, 2′-ethoxy-5-[(2R)-2-ethyl-4-[4-(trifluoromethyl)bicyclo[2.2.2]octane-1-carbonyl]piperazin-1-yl]-N-[(3R)-pyrrolidin-3-yl]-[2,3′-bipyridine]-6-carboxamide] | < 0.01
CCOc1ccc(C(=O)N2CCN(c3ccc(-c4cccnc4OCC)nc3C(=O)NCCNC)[C@H](CC)C2)c(C(F)(F)F)c1 [Compound 1-137, 2′-ethoxy-5-[(2R)-4-[4-ethoxy-2-(trifluoromethyl)benzoyl]-2-ethylpiperazin-1-yl]-N-[2-(methylamino)ethyl]-[2,3′-bipyridine]-6-carboxamide] | < 0.01
CCCOc1ccccc1-c1ccc(N2CCN(C(=O)c3ccc(C(F)(F)F)cc3Cl)C[C@H]2CC)c(C(=O)NCCN)c1 [Compound 1-11, N-(2-aminoethyl)-4-[(2R)-4-[2-chloro-4-(trifluoromethyl)benzoyl]-2-ethylpiperazin-1-yl]-2′-propoxy-[1,1′-biphenyl]-3-carboxamide] | 0.01 to 0.1
CCOc1cccnc1-c1ccc(N2CCN(C(=O)c3ccc(C(F)(F)F)cc3Cl)C[C@H]2CC)c(C(=O)NCCN)c1 [Compound 1-32, N-(2-aminoethyl)-2-[(2R)-4-[2-chloro-4-(trifluoromethyl)benzoyl]-2-ethylpiperazin-1-yl]-5-(3-ethoxypyridin-2-yl)benzamide] | 0.01 to 0.1
CCOc1ccccc1-c1ccc(N2CCN(C(=O)c3ccc(C(F)(F)F)cc3Cl)C[C@H]2CC)c(CNC[C@H](C)O)c1 [Compound 2-2, (2S)-1-[({4-[(2R)-4-[2-chloro-4-(trifluoromethyl)benzoyl]-2-ethylpiperazin-1-yl]-2′-ethoxy-[1,1′-biphenyl]-3-yl}methyl)amino]propan-2-ol] | < 0.01
CCOc1ncccc1-c1ccc(N2CCN(C(=O)C3(C(F)(F)F)CCCC3)C[C@H]2CC)c(C(=O)N[C@@H]2CN3CCC2CC3)n1 [Compound 1-400, N-[(3S)-1-azabicyclo[2.2.2]octan-3-yl]-2′-ethoxy-5-[(2R)-2-ethyl-4-[1-(trifluoromethyl)cyclopentanecarbonyl]piperazin-1-yl]-[2,3′-bipyridine]-6-carboxamide] | < 0.01
CC[C@@H]1CN(C(=O)c2ccc(C(F)(F)F)cc2Cl)CCN1c1ccc(-c2ccccc2COC)cc1C(=O)NCCN [Compound 1-16, (R)-N-(2-aminoethyl)-4-(4-(2-chloro-4-(trifluoromethyl)benzoyl)-2-ethylpiperazin-1-yl)-2′-(methoxymethyl)-[1,1′-biphenyl]-3-carboxamide] | 0.01 to 0.1
CCOc1ncccc1-c1ccc(N2CCN(C(=O)c3ccc(C)cc3N3CC[C@H](NC)C3)C[C@H]2CC)c(C(=O)NCCN)c1 [Compound 1-67, N-(2-aminoethyl)-5-(2-ethoxypyridin-3-yl)-2-[(2R)-2-ethyl-4-{4-methyl-2-[(3S)-3-(methylamino)pyrrolidin-1-yl]benzoyl}piperazin-1-yl]benzamide] | < 0.01
CCOc1ncccc1-c1ccc(N2CCN(C(=O)c3ccc(OC)cc3C(F)(F)F)C[C@H]2CC)c(C(=O)NCCN(C)C)n1 [Compound 1-169, N-[2-(dimethylamino)ethyl]-2′-ethoxy-5-[(2R)-2-ethyl-4-[4-methoxy-2-(trifluoromethyl)benzoyl]piperazin-1-yl]-[2,3′-bipyridine]-6-carboxamide] | < 0.01
CCOc1ccccc1-c1ccc(N2CCN(C(=O)c3ccc(Cl)cc3C(F)(F)F)C[C@H]2CC)c(C(=O)NCCN)c1 [Compound 1-25, N-(2-aminoethyl)-4-[(2R)-4-[4-chloro-2-(trifluoromethyl)benzoyl]-2-ethylpiperazin-1-yl]-2′-ethoxy-[1,1′-biphenyl]-3-carboxamide] | < 0.01
